Laboratory results: patent US10092537B2, “Use for PAI-1 inhibitor” (RENASCIENCE CO., LTD., priority 2013, dated 2018)

Legend:
Her2-A20 cell = Her2-A20 cell subcutaneous tumor, Herceptin and compound c (Experimental Example 19); assay type: in vivo, BALB/c-nude mice; settings: Herceptin 20 mg/kg i.p. (2 doses) + compound c 10 mg/kg/day oral; 15 days after administration
Description: At first, A20 cell line (mouse B lymphoma) was transfected with human Her2 cDNA using MIGR1 vector to prepare transformed cells (hereinafter, “Her2-A20 cell”). The Her2-A20 cells (5×10^6) were subcutaneously inoculated into BALB/c-nude mice. […] Compound c or physiological saline was administered once a day, 5 doses in total (day 0 to day 4). […] Compound c or physiological saline was administered once a day, 7 doses in total (day 7 to day 13).

[1] = 2-week repeated-dose toxicity test using rat (Experimental Example 6); assay type: in vivo, Sprague-Dawley rats; settings: 200, 600 and 2,000 mg/kg/day oral, repeatedly for 2 weeks; male and female rats
Description: Compound a was orally administered in 0 (0.5 w/v % carmellose sodium solution), 200, 600 and 2,000 mg/kg/day dosages to a male rat group and a female rat group each containing 5 Sprague-Dawley rats (Crl:CD(SD), 6-week old at the onset of administration) repeatedly for 2 weeks, and a toxicity test was conducted.

[2] = Pharmacokinetics after oral gavage (Experimental Example 6); assay type: in vivo, male Wister rats; settings: male, Wistar, rat, 50 mg/kg oral gavage, plasma, reversed-phase HPLC
Description: Compound a (50 mg/kg) was administered to male Wister rats (180-200 g) via oral gavage. Before administration (0 h), and 1, 2, 6 and 24 hours after the administration, blood was collected, and the concentration of compound a in plasma of each […] was analyzed by reversed-phase HPLC. The time at which the maximum drug concentration in blood is observed (Tmax), the maximum drug concentration (Cmax), and half-life (T½) were determined.

[3] = tested on: long-term hematopoietic stem cells; assay: Long-term hematopoietic stem cells: 15 weeks after transplantation, successive transplantation, limiting dilution (Experimental Example 10); assay type: in vivo, mice
Description: 15 weeks after bone-marrow transplantation, the control group, tPA group, and compound a-administered group (12 mice for each group) were measured for the number of bone-marrow mononucleic cells (BM MNC), frequency and absolute number of Lin-SLAM cells, and frequency of and absolute number LSK-CD34 negative cells.
15 weeks after the initial bone-marrow transplantation, bone marrow was collected from mice of the control group, tPA group, and compound a-administered group, and the collected bone marrow was transplanted into other mice (successive transplantation). In the successive transplantation, none of physiological saline, tPA, or compound a was administered.
12 weeks after successive transplantation, the chimerism of donor-derived bone marrow hematopoietic cells was measured.
To compare the frequency of long-term hematopoietic stem cell, donor-derived bone marrow to be transplanted first was diluted and transplanted, and the effect of PAI-1 inhibition was evaluated by a limiting dilution technique.
The collected bone-marrow mononucleic cells were diluted such that Ly5.1 positive bone-marrow mononucleic cell count gave 2×10E3, 6×10E3, 2×10E4, and 6×10E4, and then Ly5.1 positive bone-marrow mononucleic cells of each count were transplanted, together with 5×10E5 Ly5.2 positive competitor cells, into 20 mice. For transplantation, mice were divided into 2 groups, i.e., a compound a-administered group to which compound a was to be administered and a control group to which physiological saline was to be administered (8 groups in total), and the chimerism (the positive rate of Ly5.1 positive bone-marrow mononucleic cells) was measured 12 weeks after the transplantation.
Further, bone marrow was collected from the control groups and the compound a-administered groups to both of which Ly5.1 positive bone-marrow mononucleic cells of the above-described numbers were transplanted, and the collected bone marrow was successively transplanted into other mice. At the time successive transplantation was conducted, neither physiological saline nor the compound was administered. 12 weeks after the successive transplantation, bone marrow was collected from the mice, and Ly5.1 positive cells in the bone-marrow mononucleic cells were measured.
After successive transplantation, the frequency (CRU frequency) of hematopoietic stem cells having the hematopoietic regeneration capacity was calculated.

[4] = tested on: CML cells (32Dp210-GFP cells); assay: Chronic myelogenous leukemia model mice, imatinib and compound a (Experimental Example 11); assay type: in vivo, C3H/HeJ mice
Description: p210(BCR-ABL) gene was inserted into a MIGR1 vector, and GFP cDNA was further incorporated as a reporter gene downstream of the gene (hereinafter, the vector is referred to as “p210-GFP”). p210-GFP was infected with 32D cells (C3H/HeJ mice cell line), and chronic myelogenous leukemia (hereinafter, referred to as “CML”) cells were prepared. 2.5×10^5 of the thus-obtained CML cells (32Dp210(BCR-ABL)-GFP cells, hereinafter, referred to as “32Dp210-GFP cells”) were intravenously administered into the retro-orbital plexus of C3H/HeJ mice. 7 to 10 days after the transplantation, the abundance ratio of GFP cells in the peripheral blood was analyzed, and mice with more than 3% of abundance ratio were used as chronic myelogenous leukemia model mice in the following experiments.
15 chronic myelogenous leukemia model mice prepared by using the procedure described above were divided into the following 3 groups (each group: n=15), and a test drug was administered to the mice in accordance with the protocol shown in FIG. 15A.
Group 1: placebo group (physiological saline was administered via gavage)
Group 2: imatinib group (imatinib [150 mg/kg/day] was administered via gavage)
Group 3: imatinib+compound a group (imatinib [150 mg/kg/day] and compound a [100 mg/kg/day] were administered via gavage)
10 days (day 10) after the day on which CML cells were intravenously inoculated (day 0), administration of test drugs to the groups was started. The placebo group and the imatinib group were administered the respective test drugs once a day from day 10 to day 16 (7 doses in total). The imatinib+compound a group was administered imatinib once a day from day 10 to day 16 (7 doses in total), and also administered compound a once a day from day 10 to day 14 (5 doses in total).
As described above, 32Dp210-GFP includes GFP as a reporter gene, and thus, the CML cells having 32Dp210-GFP inserted (32Dp210-GFP cells) are GFP-positive. Therefore, using FACS (FACS (BD Biosciences: FACSCalibur), the frequency of CML cells (32Dp210-GFP cells) in mononucleic cells of the bone marrow and spleen was measured and compared between the imatinib group and the imatinib+compound a group.

[5] = imatinib 150 mg/kg/day + compound a 100 mg/kg/day

Structure (SMILES)	tumor volume versus other groups (Her2-A20 cell)	change in general state, weight, food intake, urine test, hematological test, blood chemical test, pathological test [1]	Cmax [2] [ng/mL]	Tmax [2] [h]	half-life ([2]; read-out: T½ (converted)) [h]	chimerism of donor-derived bone marrow hematopoietic cells ([3]; 12 weeks after successive transplantation, compound given only at first transplantation)	number of bone-marrow mononucleic cells, frequency and absolute number of LSK-CD34 negative cells and of Lin-SLAM cells ([3]; 15 weeks after bone-marrow transplantation, among control, tPA and compound a groups)	frequency of hematopoietic stem cells having the hematopoietic regeneration capacity, versus control ([3]; after successive transplantation) [time higher]	chimerism (positive rate of Ly5.1 positive bone-marrow mononucleic cells) ([3]; limiting dilution 2×10E3 to 6×10E4 cells, 12 weeks after transplantation)	survival rate on day 50 ([4]; imatinib 150 mg/kg/day (day 10-16) + compound a 100 mg/kg/day (day 10-14) via gavage) [%]	frequency of 32Dp210-GFP cells in bone-marrow mononucleic cells [4, 5]	frequency of CML cells (32Dp210-GFP cells) in the spleen [4, 5]	median survival period ([4]; imatinib 150 mg/kg/day + compound a 100 mg/kg/day via gavage, placebo 14 days) [days]
O=C(Nc1ccc(Cl)cc1C(=O)O)c1cccc(-c2ccccc2)c1 [Example 4, 2-[(biphenyl-3-ylcarbonyl)amino]-5-chlorobenzoic acid]	significantly smaller												
O=C(COCC(=O)N1CCN(C(c2ccccc2)c2ccccc2)CC1)Nc1ccc(Cl)cc1C(=O)[O-].[Na+] [Example 30 (compound group 2), 2-(2-(2-(4-benzhydrylpiperazin-1-yl)-2-oxoethoxy)acetamido)-5-chlorobenzoic acid sodium salt]		no obvious change	35700	2	2.5	marked increase	highest values	≥ 6	significant increases	60	about 1.7%	about 6.6%	40
